The values below come from patent publication US20180153990A1, “PCA1 PROTEIN AND METHODS OF TREATING PNEUMOCYSTIS PNEUMONIA INFECTION” (priority 2016, published 2018).

One experiment concerns alveolar macrophages. Description: Effect of antibody administration during Pcp on alveolar macrophage phenotype (iNOS M1 / YM-1 M2 staining). The experiment is classed as in vivo, SCID mice. The protocol: For this experiment the Pneumocystis-infected mice were treated as above except that they received only 2 doses of specific antibody, nonspecific antibody or sulfasalazine on days 1 and 3 and then sacrificed later in the day on day 3. BALF aliquots containing 5×10^4 cells in HBSS were cytospun onto glass slides, fixed with 3% paraformaldehyde in PBS for 15 minutes at room temperature; rinsed 3× in PBS; and permeabilized with 0.02% Triton X-100 in PBS for 15 minutes at room temperature. The slides were then rinsed 3× in PBS, blocked with species specific 5% normal serum (normal goat serum, MP Biomedical; normal donkey serum, EMD Millipore) in 0.05% Tween-20 in PBS (PBS-T) for 1 hr at room temperature and rinsed 3× in PBS-T. Alveolar macrophages were identified by staining with fluorescein labeled primary antibody to CD11c. Staining with antibody to iNOS was used to identify M1 macrophages while staining with antibody to YM-1 was considered a marker for M2 macrophages (Abcam and Stemcell).
To test the effect of immune modulation, by administration of sulfasalazine or passive immunization, on macrophage phenotype during response to Pneumocystis, these agents or control nonspecific antibody were administered and alveolar macrophages were harvested after 3 days.

The next experiment has as its system Pneumocystis. Description: Pcp-IRIS model: physiologic assessment (body weight, lung compliance, lung resistance). The experiment is classed as in vivo, SCID mice. The note with it: treatment started when mice showed clinical signs of Pcp-IRIS. The text has this:
Severe combined immune deficient (SCID) mice on a C.B-17 background are maintained in a specific pathogen-free colony at University of Rochester Medical Center. For these studies, 6-8 week old female mice were infected with Pneumocystis by intratracheal inoculation with 1×10^5 Pneumocystis cysts and then also cohoused with other Pneumocystis-infected SCID mice to ensure infection. The mice were fed acidified water and sterile food. Immune reconstitution (IR) was initiated three weeks after infection by giving mice an intraperitoneal (i.p.) injection of 5×10^7 splenocytes from wild-type C.B-17 mice. All animals involved were treated ethically according to the guidelines from the Association for Assessment and Accreditation of Laboratory Care International (AAALAC International), and the protocols used were approved by the University Committee on Animal Resources.
Lung resistance and compliance were measured on living ventilated mice using a Harvard rodent ventilator (Harvard Apparatus, Southnatic, Mass.) and a whole body plethysmograph (BUXCO Electronics Inc., Wilmington, N.C.) as previously described (Wang et al., “Immune Modulation With Sulfasalazine Attenuates Immunopathogenesis but Enhances Macrophage-Mediated Fungal Clearance During Pneumocystis Pneumonia,” PLoS Pathog. 6:e1001058 (2010), which is hereby incorporated by reference in its entirety). […]

`O=C(O)c1cc(/N=N/c2ccc(S(=O)(=O)Nc3ccccn3)cc2)ccc1O` [SSZ, sulfasalazine]: in the experiment with alveolar macrophages (Treatment Day 3), the “M1 phenotype alveolar macrophages” value is reported as 200 per 300 macrophages counted and the “M2 phenotype alveolar macrophages” value is 100 per 300 macrophages counted. Also, in the experiment with alveolar macrophages (after 3 days), the “proportion of M2 type macrophages in the alveolar space” value is on record as “increase”. The “severity of Pcp (recovery of body weight, pulmonary function)” value with Pneumocystis is “reduced severity of Pcp”.
